Experimental data reported in patent US11492347B2 (ENYO PHARMA, priority 2018, dated 2022).

Tests used:
[1] = test system: H1N1 (influenza A/New Caledonia/20/99); test: microbe, parasite or virus in culture; format: cell-based; settings: H1N1, A549, 48 h
UXF 1138 = test: Cytotoxicity, propidium iodide based monolayer assay; format: cell-based; settings: 96 h; UXF 1138 uterine sarcoma, four days of treatment, T/C=50%; read-out: Absolute IC50
Experimental: The cytotoxicity was tested for compounds of the invention on five different cell-lines, namely LXFL 1121, MAXF 401, MMXF L-636, PRXF PC-3M and UXF 1138 which are respectively lung large cell carcinoma, breast adeno carcinoma, multiple myeloma, prostate adeno carcinoma and uterine sarcoma.
A working stock solution of the test compounds was prepared in DMSO at a concentration of 33 mM or 8.25 mM, and small aliquots were stored at −20° C. On each day of an experiment, a frozen aliquot of the working stock solution was thawed and stored at room temperature prior to and during treatment.
All liquid handling steps were performed using the Tecan Freedom EVO 200 platform. First, serial 2-fold dilutions of the 33 mM DMSO working stock solution were done in DMSO. The DMSO dilutions were then diluted 1:22 into cell culture medium in an intermediate dilution plate. Finally, 10 μl taken from the intermediate dilution plate were transferred to 140 μl/well of the final assay plate. Thus, the DMSO serial dilutions were diluted 1:330 with cell culture medium, and the DMSO concentration in the assay was 0.3% v/v.
Cell lines were routinely passaged once or twice weekly and maintained in culture for up to 20 passages. Most cell lines were grown at 37° C. in a humidified atmosphere with 5% CO2 in RPMI 1640 medium (25 mM HEPES, with L-glutamine, #FG1385, Biochrom, Berlin, Germany) supplemented with 10% (v/v) fetal calf serum (Sigma, Taufkirchen, Germany) and 0.05 mg/mL gentamicin (Life Technologies, Karlsruhe, Germany).
A modified propidium iodide (PI) based monolayer assay was used to assess the anti-cancer activity of the compounds. Briefly, cells were harvested from exponential phase cultures, counted and plated in 96 well flat-bottom microtiter plates at a cell density of 4,000 to 40,000 cells/well dependent on the cell line's growth rate. The individual seeding density for each cell line ensure exponential growth conditions over the whole or at least the bigger part of the treatment period. After a 24 h recovery period, to allow the cells to resume exponential growth, 10 μl of culture medium (6 control wells/cell line/plate) or of culture medium with test compounds were added. Compounds were applied at ten concentrations in 2-fold increments in duplicates up to 25 μM or 100 μM and treatment continued for four days. After four days of treatment, cells were next washed with 200 μl PBS to remove dead cells and debris, then 200 μl of a solution containing 7 μg/ml propidium iodide (PI) and 0.1% (v/v) Triton X-100 was added. After an incubation period of 1-2 hours at room temperature, fluorescence (FU) was measured using the Enspire Multimode Plate Reader (excitation λ=530 nm, emission k=620 nm) to quantify the amount of attached viable cells.
Drug effects were expressed in terms of the percentage of the fluorescence signal, obtained by comparison of the mean signal in the treated wells with the mean signal of the untreated controls (expressed by the test-versus-control value, T/C−value [%]):
[formula] IC values reported reflect the concentration of the test compound that achieves T/C=50%. Calculation was done by 4 parameter non-linear curve fit.

[2] = biological target: T1, CISD1 Gene Product (mitoNEET) (Homo sapiens, UniProt Q9NZ45); test: Stability of Fe-S cluster binding of purified NEET protein (absorbance 458 nm); format: biochemical; settings: for Time (in minutes) to achieve 50% loss of bound cluster (Absorbance 458 nm) / Residual cluster bound at end of experiment (Percentage Absorbance 458 nm at time zero): mitoNEET 20 μM, compound 60 μM; for Time (in minutes) to achieve 50% loss of bound cluster (Absorbance 458 nm): pH 6, 37° C., run time 180 minutes, vehicle control 80; for Residual cluster bound at end of experiment (Percentage Absorbance 458 nm at time zero): pH 6, at 180 minutes, vehicle control 16%
T1 sequence (Q9NZ45 33-108 limits assumed): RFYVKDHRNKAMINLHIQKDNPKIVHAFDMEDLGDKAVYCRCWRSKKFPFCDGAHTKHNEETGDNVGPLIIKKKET
Experimental: (§1) The modulator effect on the NEET proteins encoded by human CISD1, CISD2, and CISD3 genes by the compounds of the invention has been tested and is reported below. Particularly, the biochemical function of the NEET proteins is measured by the stability of Fe—S cluster binding of the purified NEET proteins.
(§2) The Fe—S cluster binding capacity of NEET proteins is known to be coordinated by four amino-acids in a stretch of 16 (three Cysteine and one Histidine). As the lability of the Fe—S cluster of NEET proteins is sensitive to the environment, cluster stability measurements are one of the measures of interactions of NEET proteins with small molecules and compounds. NEET protein/2Fe-2S cluster stability can be assessed by monitoring the decay in absorbance of its characteristic 458-nm peak (characteristic of the oxidized 2Fe-2S cluster) over time. Each NEET protein (mitoNEET, NAF-1 and Miner 2) was tested for its Fe—S binding in the absence or presence of a compound according to the invention (see table 4 below). The rate of cluster release (time in minutes to achieve 50% loss of bound Fe—S cluster) was compared for each NEET protein in the presence of one of the compounds of the invention (in a 1:3 protein:compound molar ratio) relative to each protein alone.
(§3) At pH 6, all the three NEET proteins (mitoNEET, NAF-1 and Miner 2) have a characteristic rate of loss of the bound Fe—S cluster that can be measured by the decrease of absorbance at wavelength 458 nm over time, using a spectrophotometer. Thus, Bis-Tris buffer (100 mM Bis-Tris pH6, 100 mM Nacl) was used at pH 6 to dilute either DMSO (Blank sample: Bis-Tris Buffer pH 6, 66 μM DMSO), DMSO and one of the three NEET proteins (Control sample: Bis-Tris Buffer pH 6, 66 μM DMSO, 20 μM purified NEET protein) or DMSO, one of the three NEET proteins and a compound of the invention (Test sample: Bis-Tris Buffer pH 6, 66 μM DMSO, 20 μM purified NEET protein, 60 μM compound of the invention).
(§4) A reaction mix containing DMSO diluted in the Bis-Tris Buffer with or without a compound of the invention was prepared. The purified NEET protein was the last component added to the reaction mix which was then aliquoted into 4 replicates in 96 wells plates. The absorbance at wavelength 458 nm was taken at 5 minutes intervals at 37° C. with a spectrofluorimeter. The assay run time for CISD2 gene product (NAF-1) was 500 minutes and 180 minutes for both the CISD1gene product (mitoNEET) and the CISD3 gene product (Miner2).
(§5) In addition to time monitoring, residual bound Fe—S cluster to NEET protein was measured at the final point of the spectrometry assay for each Test sample and compared to the Control sample data (in parenthesis table 4). This residual binding is measured by the differential percentage between the absorbance 458 nm at time zero and the absorbance 458 nm at the end of the experiment (i.e. respectively 500 or 180 minutes as described here above), showing the percentage of NEET protein still able to bind a Fe—S cluster.
(§6) Analysis of the absorbance enables the time for which 50% loss of bound Fe—S cluster is reached (i.e. a 50% absorbance decrease at 458 nm) for each Test sample and each Control sample (in parenthesis table 4) to be determined. The data are then compared to determine whether the compound of the invention stabilizes or destabilizes the NEET protein/Fe—S cluster binding.

[3] = biological target: T2, CISD2 Gene Product (NAF-1) (Homo sapiens, UniProt Q8N5K1); test: as above; format: biochemical; settings: for Time (in minutes) to achieve 50% loss of bound cluster (Absorbance 458 nm) / Residual cluster bound at end of experiment (Percentage Absorbance 458 nm at time zero): NAF-1 20 μM, compound 60 μM; for Time (in minutes) to achieve 50% loss of bound cluster (Absorbance 458 nm): pH 6, 37° C., run time 500 minutes, vehicle control 310 or 210; for Residual cluster bound at end of experiment (Percentage Absorbance 458 nm at time zero): pH 6, at 500 minutes, vehicle control 3%; for Stabiliser or destabiliser of Fe-S cluster binding by CISD2 Gene Product (NAF-1): time to 50% cluster loss changed by more than 25% compared to the Control sample, at the concentrations tested
T2 sequence (Q8N5K1 57-135 limits assumed): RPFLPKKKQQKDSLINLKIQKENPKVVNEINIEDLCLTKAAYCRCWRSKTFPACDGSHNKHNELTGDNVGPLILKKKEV
Experimental: as §1, §2, §3, §4, §5, §6

[4] = biological target: T3, CISD3 Gene Product (Miner2) (Homo sapiens, UniProt P0C7P0); test: as above; format: biochemical; settings: for Residual cluster bound at end of experiment (Percentage Absorbance 458 nm at time zero): CISD3 gene product 20 μM, pH 6, at 180 minutes, vehicle control 11%; for Stabiliser or destabiliser of Fe-S cluster binding by CISD3 Gene Product (Miner2): time to 50% cluster loss changed by more than 25% compared to the Control sample, at the concentrations tested
T3 sequence (P0C7P0 15-127): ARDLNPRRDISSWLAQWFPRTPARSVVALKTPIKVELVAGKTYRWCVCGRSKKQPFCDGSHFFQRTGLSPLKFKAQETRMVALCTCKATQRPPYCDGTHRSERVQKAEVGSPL
Experimental: as §1, §2, §3, §4, §5, §6

NFκB = NFκB reporter assay, TNFα stimulation of A549 NFκB-NanoLuciferase reporter cells; format: cell-based; settings: Homo sapiens, 4 ng/ml TNFα, NanoGlo luciferase assay 6 hours later
Source text: Compounds of the present invention have been tested for their capacity to inhibit NFκB.
The NFκB reporter construct was made by cloning 5 NFκB responsive elements upstream of a NanoLuciferase reporter gene flanked by AAVS1 genomic sequences.
NFκB Responsive element fused with NanoLuciferase and SV40 late Poly(A) signal was amplified from pNL3.2-NFκB-Nluc (Promega) using NFKB-NLUC-F and NFKB-NLUC-R primers and inserted by Infusion (TaKaRa) in AAVS1 SA-2A-puro-pA donor plasmid (Hockemeyer et al, Nat Biotechnol. 2009, 27, 851-7) digested by Sal1. pCRISPR AAVS1-T2 expressing a guide RNA (gRNA) to target human AAVS1 (T2 target sequence) was constructed by inserting AAVS1-T2A hybridized primers in pLentiCRISPR v2-blast (Sanjana et al, Nat Methods. 2014, 11, 783-4) digested by Bsmbl.
A549 cells were transfected by the plasmids and puromycine selected for 5 days (1 μg mL-1). Then clones were obtained by limiting dilution and selected to maximize TNF dependent NFκB-NanoLuciferase induction.
The reporter cells were seeded on a 96-well plate for overnight with DMEM including 10% FBS. Test compounds were added at varying concentrations. The cells then were treated with 4 ng/ml TNFα (Peprotech, ref E251) in DMEM+10% FBS. NanoGlo luciferase assay (Promega) was carried out 6 hours later. Luminescence was measured using a Spark 20M spectrofluorimeter (Tecan). Values were normalized to the luminescence measured in untreated cells.

Row | SMILES | IC50 [1] [nM] | IC50 (UXF 1138) [nM] | Time (in minutes) to achieve 50% loss of bound cluster (Absorbance 458 nm) [2] | Residual cluster bound at end of experiment (Percentage Absorbance 458 nm at time zero) [2] | Stabiliser or destabiliser of Fe-S cluster binding by CISD1 Gene Product (mitoNEET) ([2]; time to 50% cluster loss changed by more than 25% compared to the Control sample, at the concentrations tested) | Time (in minutes) to achieve 50% loss of bound cluster (Absorbance 458 nm) [3] | Residual cluster bound at end of experiment (Percentage Absorbance 458 nm at time zero) [3] | Stabiliser or destabiliser of Fe-S cluster binding by CISD2 Gene Product (NAF-1) [3] | Residual cluster bound at end of experiment (Percentage Absorbance 458 nm at time zero) ([4]; compound 60 μM) | Time (in minutes) to achieve 50% loss of bound cluster (Absorbance 458 nm) ([4]; Miner2 20 μM, compound 60 μM, pH 6, 37° C., run time 180 minutes, vehicle control 60) | Stabiliser or destabiliser of Fe-S cluster binding by CISD3 Gene Product (Miner2) [4] | EC50 (NFκB) [nM]
1 | COCCNc1ccc(C(=O)Nc2sc3c(c2C(=O)O)CC(C)(C)CC3(C)C)cc1 [Compound #60, 2-[[4-(2-Methoxyethylamino)benzoyl]amino]-5,5,7,7-tetramethyl-4,6-dihydrobenzothiophene-3-carboxylic acid] | 10 | 851 | 100 (80) minutes | 35% (16%) | stabilisers | 120 (310) minutes | 12% (3%) | destabilisers | 38% (11%) | 90 (60) minutes | Stabilisers | 
2 | CC1(C)Cc2c(sc(NC(=O)c3ccc(NCC4CCOCC4)cc3)c2C(=O)O)C(C)(C)C1 [Compound #132, 5,5,7,7-Tetramethyl-2-[[4-(tetrahydropyran-4-ylmethylamino)benzoyl]amino]-4,6-dihydrobenzothiophene-3-carboxylic acid] | 1.7 |  | 90 (80) minutes | 19% (16%) |  | 210 (310) minutes | 19% (3%) | destabilisers | 50% (11%) |  | Stabilisers | 40
